# Key:
# Test in all cases: SILAC LC-MS ABPP
# Assay type in all cases: cell-based
# Settings in all cases: 25 μM 2 h, live DM93 cells
# P82650 = molecular target: T1, P82650 (Homo sapiens, UniProt P82650)
# T1 construct: performing SuTEx compound screening directly in cells; endogenous in cells; host or cells: DM93 cells (SILAC)
# How it was run: (§1)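 In DM93 melanoma cells, heavy SILAC cultures take 25 μM SuTEx compound for 2 h at 37 °C while light cultures take DMSO. Both then receive HHS-475 alkyne probe at 100 μM for 2 h; probe-modified peptides are quantified by LC-MS/MS.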
# O15318 = molecular target: T2, O15318 (Homo sapiens, UniProt O15318)
# T2 construct: endogenous in cells; host or cells: DM93
# How it was run: as §1
# Q9NZQ3 = molecular target: T3, Q9NZQ3 (Homo sapiens, UniProt Q9NZQ3)
# T3 construct: endogenous in cells; host or cells: DM93 cells (SILAC)
# How it was run: as §1
# P07814 = molecular target: T4, P07814 (Homo sapiens, UniProt P07814)
# T4 construct: endogenous in cells; host or cells: DM93 cells (SILAC)
# How it was run: as §1
# P54578 = molecular target: T5, P54578 (Homo sapiens, UniProt P54578)
# T5 construct: endogenous in cells; host or cells: DM93 cells (SILAC)
# How it was run: as §1
# P62847 = molecular target: T6, P62847 (Homo sapiens, UniProt P62847)
# T6 construct: performing SuTEx compound screening directly in cells; endogenous in cells; host or cells: DM93 cells (SILAC)
# How it was run: as §1
# Q00535 = molecular target: T7, Q00535 (Homo sapiens, UniProt Q00535)
# T7 construct: performing SuTEx compound screening directly in cells; endogenous in cells; host or cells: DM93 cells (SILAC)
# How it was run: as §1
# Q96A72 = molecular target: T8, Q96A72 (Homo sapiens, UniProt Q96A72)
# T8 construct: endogenous in cells; host or cells: DM93 cells (SILAC), treated live; soluble proteome analysed
# How it was run: as §1
# O00571 = molecular target: T9, O00571 (Homo sapiens, UniProt O00571)
# T9 construct: endogenous in cells; host or cells: DM93
# How it was run: as §1
# O95260 = molecular target: T10, O95260 (Homo sapiens, UniProt O95260)
# T10 construct: endogenous in cells; host or cells: DM93 cells (SILAC)
# How it was run: as §1
# O95453 = molecular target: T11, O95453 (Homo sapiens, UniProt O95453)
# T11 construct: endogenous in cells; host or cells: DM93 cells (SILAC)
# How it was run: as §1
# Q9Y2H2 = molecular target: T12, Q9Y2H2 (Homo sapiens, UniProt Q9Y2H2)
# T12 construct: endogenous in cells; host or cells: DM93 cells (SILAC)
# How it was run: as §1
# O60828 = molecular target: T13, O60828 (Homo sapiens, UniProt O60828)
# T13 construct: endogenous in cells; host or cells: DM93
# How it was run: as §1
# P26599 = molecular target: T14, P26599 (Homo sapiens, UniProt P26599)
# T14 construct: endogenous in cells; host or cells: DM93 (SILAC)
# How it was run: as §1
# P28482 = molecular target: T15, P28482 (Homo sapiens, UniProt P28482)
# T15 construct: endogenous in cells; host or cells: DM93 (SILAC)
# How it was run: as §1
# P49792 = molecular target: T16, P49792 (Homo sapiens, UniProt P49792)
# T16 construct: endogenous in cells; host or cells: DM93 cells (SILAC)
# How it was run: as §1
# Q92974 = molecular target: T17, Q92974 (Homo sapiens, UniProt Q92974)
# T17 construct: endogenous in cells; host or cells: DM93 cells (SILAC), live-cell treatment
# How it was run: as §1
# Q9H009 = Q9H009 (Homo sapiens, UniProt Q9H009)
# How it was run: as §1
# Q9UJ68 = molecular target: T18, Q9UJ68 (Homo sapiens, UniProt Q9UJ68)
# T18 construct: endogenous in cells; host or cells: DM93 cells (SILAC)
# How it was run: as §1
# T2 sequence (O15318 whole entry): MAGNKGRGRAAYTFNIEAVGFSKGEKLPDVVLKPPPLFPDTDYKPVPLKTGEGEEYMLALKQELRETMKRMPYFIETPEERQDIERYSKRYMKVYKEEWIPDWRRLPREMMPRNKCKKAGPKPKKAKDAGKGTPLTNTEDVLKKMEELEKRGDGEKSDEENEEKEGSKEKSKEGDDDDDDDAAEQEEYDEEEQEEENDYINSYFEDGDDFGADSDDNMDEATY
# T8 sequence (Q96A72 whole entry): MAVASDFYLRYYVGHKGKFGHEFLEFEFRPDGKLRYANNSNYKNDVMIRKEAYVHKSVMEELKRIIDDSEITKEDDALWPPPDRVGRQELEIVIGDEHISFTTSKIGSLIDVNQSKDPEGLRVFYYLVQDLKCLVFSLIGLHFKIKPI
# T12 sequence (Q9Y2H2 whole entry): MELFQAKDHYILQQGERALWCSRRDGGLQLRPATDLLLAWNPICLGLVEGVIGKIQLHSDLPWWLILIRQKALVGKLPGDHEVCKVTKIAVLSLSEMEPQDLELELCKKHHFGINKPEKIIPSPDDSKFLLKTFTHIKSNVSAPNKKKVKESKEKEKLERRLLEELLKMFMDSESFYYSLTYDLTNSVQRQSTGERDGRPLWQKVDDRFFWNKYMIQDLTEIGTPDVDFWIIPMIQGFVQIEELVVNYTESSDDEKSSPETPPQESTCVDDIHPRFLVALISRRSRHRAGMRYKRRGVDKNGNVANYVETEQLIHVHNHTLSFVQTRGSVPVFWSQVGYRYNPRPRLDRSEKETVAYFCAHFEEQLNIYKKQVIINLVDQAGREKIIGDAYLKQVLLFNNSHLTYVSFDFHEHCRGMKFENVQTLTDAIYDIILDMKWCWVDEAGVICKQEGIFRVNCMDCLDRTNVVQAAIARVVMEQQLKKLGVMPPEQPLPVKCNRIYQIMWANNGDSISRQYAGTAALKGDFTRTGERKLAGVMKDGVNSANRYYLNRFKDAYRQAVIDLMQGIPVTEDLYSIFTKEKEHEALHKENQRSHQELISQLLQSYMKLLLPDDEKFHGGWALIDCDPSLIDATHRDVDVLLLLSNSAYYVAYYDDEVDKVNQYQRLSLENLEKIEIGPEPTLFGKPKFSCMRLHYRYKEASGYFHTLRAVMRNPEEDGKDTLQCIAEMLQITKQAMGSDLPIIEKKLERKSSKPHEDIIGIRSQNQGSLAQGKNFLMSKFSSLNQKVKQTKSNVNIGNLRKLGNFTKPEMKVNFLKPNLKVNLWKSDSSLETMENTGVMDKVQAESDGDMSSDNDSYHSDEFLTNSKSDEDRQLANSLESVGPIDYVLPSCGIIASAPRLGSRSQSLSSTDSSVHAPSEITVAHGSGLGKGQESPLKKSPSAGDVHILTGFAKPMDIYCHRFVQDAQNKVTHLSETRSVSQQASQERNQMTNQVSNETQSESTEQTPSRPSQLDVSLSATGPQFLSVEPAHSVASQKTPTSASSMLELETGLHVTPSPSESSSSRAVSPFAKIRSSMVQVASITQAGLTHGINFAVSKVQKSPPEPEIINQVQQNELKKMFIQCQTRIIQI
# T14 sequence (P26599 whole entry): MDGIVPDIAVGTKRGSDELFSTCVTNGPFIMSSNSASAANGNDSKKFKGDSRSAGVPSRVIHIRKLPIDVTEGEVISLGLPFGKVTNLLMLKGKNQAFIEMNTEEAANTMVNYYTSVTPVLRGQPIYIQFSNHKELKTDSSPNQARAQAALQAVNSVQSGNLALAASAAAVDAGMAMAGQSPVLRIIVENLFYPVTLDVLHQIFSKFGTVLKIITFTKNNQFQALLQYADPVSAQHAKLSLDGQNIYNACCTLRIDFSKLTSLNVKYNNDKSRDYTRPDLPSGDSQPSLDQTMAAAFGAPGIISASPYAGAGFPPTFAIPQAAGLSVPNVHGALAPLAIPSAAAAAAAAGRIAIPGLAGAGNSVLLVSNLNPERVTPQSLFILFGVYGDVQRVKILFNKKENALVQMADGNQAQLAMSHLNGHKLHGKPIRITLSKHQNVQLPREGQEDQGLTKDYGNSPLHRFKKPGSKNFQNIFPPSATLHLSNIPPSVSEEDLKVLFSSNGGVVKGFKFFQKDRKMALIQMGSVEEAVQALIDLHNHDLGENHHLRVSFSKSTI
# T13 sequence (O60828 whole entry): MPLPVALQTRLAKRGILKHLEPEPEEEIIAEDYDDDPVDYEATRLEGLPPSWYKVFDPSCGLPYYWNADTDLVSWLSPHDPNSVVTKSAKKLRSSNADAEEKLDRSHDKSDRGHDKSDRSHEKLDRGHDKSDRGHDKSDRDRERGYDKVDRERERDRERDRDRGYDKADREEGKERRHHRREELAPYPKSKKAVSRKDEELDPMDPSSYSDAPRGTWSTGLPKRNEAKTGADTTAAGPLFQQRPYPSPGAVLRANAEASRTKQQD
# T5 sequence (P54578 whole entry): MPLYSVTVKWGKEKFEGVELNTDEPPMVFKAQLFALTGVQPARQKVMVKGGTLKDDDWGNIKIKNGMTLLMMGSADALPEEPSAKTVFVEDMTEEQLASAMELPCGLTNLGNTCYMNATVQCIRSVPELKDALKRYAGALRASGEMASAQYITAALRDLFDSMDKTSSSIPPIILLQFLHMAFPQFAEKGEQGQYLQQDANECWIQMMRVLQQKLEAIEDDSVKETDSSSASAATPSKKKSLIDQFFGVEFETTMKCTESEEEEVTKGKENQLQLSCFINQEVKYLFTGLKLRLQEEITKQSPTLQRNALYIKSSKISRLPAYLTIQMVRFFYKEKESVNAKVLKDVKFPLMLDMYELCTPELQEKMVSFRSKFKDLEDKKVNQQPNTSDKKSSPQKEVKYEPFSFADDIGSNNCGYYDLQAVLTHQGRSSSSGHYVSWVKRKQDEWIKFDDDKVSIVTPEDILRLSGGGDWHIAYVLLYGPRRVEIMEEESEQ
# T10 sequence (O95260 whole entry): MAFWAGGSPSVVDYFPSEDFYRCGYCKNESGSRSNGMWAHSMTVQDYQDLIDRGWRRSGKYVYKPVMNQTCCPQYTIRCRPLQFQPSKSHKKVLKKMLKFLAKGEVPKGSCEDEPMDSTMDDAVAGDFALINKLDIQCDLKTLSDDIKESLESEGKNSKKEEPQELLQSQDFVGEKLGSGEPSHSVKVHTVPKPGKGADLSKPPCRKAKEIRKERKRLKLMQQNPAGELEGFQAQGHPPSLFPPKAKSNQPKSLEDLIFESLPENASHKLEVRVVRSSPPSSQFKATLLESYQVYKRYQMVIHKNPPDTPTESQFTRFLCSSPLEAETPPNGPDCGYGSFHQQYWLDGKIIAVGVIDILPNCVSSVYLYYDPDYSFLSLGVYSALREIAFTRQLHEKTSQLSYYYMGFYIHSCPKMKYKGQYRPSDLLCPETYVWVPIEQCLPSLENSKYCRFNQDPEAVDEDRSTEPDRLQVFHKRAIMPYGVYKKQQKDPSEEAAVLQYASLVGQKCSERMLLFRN
# T9 sequence (O00571 whole entry): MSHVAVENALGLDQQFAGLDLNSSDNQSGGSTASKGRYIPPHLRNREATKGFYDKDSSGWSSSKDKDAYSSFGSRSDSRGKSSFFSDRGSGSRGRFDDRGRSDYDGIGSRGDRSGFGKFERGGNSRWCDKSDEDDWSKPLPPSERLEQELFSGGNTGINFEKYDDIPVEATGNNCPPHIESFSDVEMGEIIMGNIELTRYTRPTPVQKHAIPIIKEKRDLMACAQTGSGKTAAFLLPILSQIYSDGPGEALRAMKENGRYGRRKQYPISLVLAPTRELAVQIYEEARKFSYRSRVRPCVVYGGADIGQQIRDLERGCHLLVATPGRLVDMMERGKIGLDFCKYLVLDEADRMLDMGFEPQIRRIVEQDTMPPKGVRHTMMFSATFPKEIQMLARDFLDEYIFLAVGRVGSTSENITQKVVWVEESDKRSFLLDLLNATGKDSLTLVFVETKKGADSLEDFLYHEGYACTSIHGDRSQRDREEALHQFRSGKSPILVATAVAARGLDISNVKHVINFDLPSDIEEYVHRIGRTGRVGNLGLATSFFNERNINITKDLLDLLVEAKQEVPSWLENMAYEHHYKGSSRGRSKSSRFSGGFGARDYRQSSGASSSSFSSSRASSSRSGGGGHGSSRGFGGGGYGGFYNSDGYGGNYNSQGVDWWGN
# T17 sequence (Q92974 whole entry): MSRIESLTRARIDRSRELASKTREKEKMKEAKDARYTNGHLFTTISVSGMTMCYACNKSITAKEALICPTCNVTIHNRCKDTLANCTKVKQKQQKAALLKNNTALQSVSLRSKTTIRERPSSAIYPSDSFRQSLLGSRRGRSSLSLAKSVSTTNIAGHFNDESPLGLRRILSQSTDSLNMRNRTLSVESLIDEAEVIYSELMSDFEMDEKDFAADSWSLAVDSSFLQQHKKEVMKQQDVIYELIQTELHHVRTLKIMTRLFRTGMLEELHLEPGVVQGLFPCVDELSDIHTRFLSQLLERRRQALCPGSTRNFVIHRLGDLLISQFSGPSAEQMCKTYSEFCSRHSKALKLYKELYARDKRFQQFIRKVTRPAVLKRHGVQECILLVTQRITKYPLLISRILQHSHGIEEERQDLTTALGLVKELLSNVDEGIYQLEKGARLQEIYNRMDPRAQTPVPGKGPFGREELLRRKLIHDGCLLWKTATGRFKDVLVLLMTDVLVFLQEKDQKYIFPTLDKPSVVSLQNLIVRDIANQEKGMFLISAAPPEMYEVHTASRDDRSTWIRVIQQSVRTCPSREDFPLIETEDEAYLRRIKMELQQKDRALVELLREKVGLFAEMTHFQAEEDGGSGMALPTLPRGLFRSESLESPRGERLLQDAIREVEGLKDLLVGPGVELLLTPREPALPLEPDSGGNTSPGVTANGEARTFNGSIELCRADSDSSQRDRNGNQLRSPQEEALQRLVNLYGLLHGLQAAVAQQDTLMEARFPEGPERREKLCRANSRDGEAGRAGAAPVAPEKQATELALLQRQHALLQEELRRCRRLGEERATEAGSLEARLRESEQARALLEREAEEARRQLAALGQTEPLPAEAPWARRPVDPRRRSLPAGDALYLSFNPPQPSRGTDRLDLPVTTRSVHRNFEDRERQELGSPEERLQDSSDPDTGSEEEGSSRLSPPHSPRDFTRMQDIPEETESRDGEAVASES
structure (smiles),measurement,setting,value
"O=C(c1ccc(S(=O)(=O)n2cncn2)cc1)N1CCC(c2ccccc2)CC1 [HHS-0701, (4-((1H-1,2,4-triazol-1-yl)sulfonyl)phenyl)(4-phenylpiperidin-1-yl)methanone]",liganded tyrosine site 163,P82650,HHS0701.Y (tyrosine sites that showed >80% reductions (SR >5) in probe labeling in cells treated with compounds (liganded sites))
"O=C(NC1CCCCC1)c1ccc(S(=O)(=O)n2cncn2)cc1 [HHS-0301, 4-((1H-1,2,4-triazol-1-yl)sulfonyl)-N-cyclohexylbenzamide]",liganded tyrosine site 43,O15318,HHS0301.Y|HHS0401.Y (tyrosine sites that showed >80% reductions (SR >5) in probe labeling in cells treated with compounds (liganded sites))
same,liganded tyrosine site 56,O15318,HHS0301.Y (tyrosine sites that showed >80% reductions (SR >5) in probe labeling in cells treated with compounds (liganded sites))
same,liganded tyrosine site 52,Q9NZQ3,HHS0301.Y (tyrosine sites that showed >80% reductions (SR >5) in probe labeling in cells treated with compounds (liganded sites))
"O=C(NCC1CC1)c1ccc(S(=O)(=O)n2cncn2)cc1 [HHS-0201, 4-((1H-1,2,4-triazol-1-yl)sulfonyl)-N-(cyclopropylmethyl)benzamide]",liganded tyrosine site 864,P07814,HHS0201.Y (tyrosine sites that showed >80% reductions (SR >5) in probe labeling in cells treated with compounds (liganded sites))
same,liganded tyrosine site 401,P54578,HHS0201.Y (tyrosine sites that showed >80% reductions (SR >5) in probe labeling in cells treated with compounds (liganded sites))
same,liganded tyrosine site 81,P62847,HHS0201.Y (tyrosine sites that showed >80% reductions (SR >5) in probe labeling in cells treated with compounds (liganded sites))
same,liganded tyrosine site 242,Q00535,HHS0201.Y (tyrosine sites that showed >80% reductions (SR >5) in probe labeling in cells treated with compounds (liganded sites))
same,liganded tyrosine site 36,Q96A72,HHS0201.Y (tyrosine sites that showed >80% reductions (SR >5) in probe labeling in cells treated with compounds (liganded sites))
"O=C(NCc1ccccc1)c1ccc(S(=O)(=O)n2cncn2)cc1 [HHS-0401, 4-((1H-1,2,4-triazol-1-yl)sulfonyl)-N-benzylbenzamide]",liganded tyrosine site 266,O00571,HHS0401.Y (tyrosine sites that showed >80% reductions (SR >5) in probe labeling in cells treated with compounds (liganded sites))
same,liganded tyrosine site 63,O95260,HHS0401.Y|HHS0701.Y (tyrosine sites that showed >80% reductions (SR >5) in probe labeling in cells treated with compounds (liganded sites))
same,liganded tyrosine site 161,O95453,HHS0401.Y (tyrosine sites that showed >80% reductions (SR >5) in probe labeling in cells treated with compounds (liganded sites))
same,liganded tyrosine site 887,Q9Y2H2,HHS0401.Y|HHS0701.Y (tyrosine sites that showed >80% reductions (SR >5) in probe labeling in cells treated with compounds (liganded sites))
"O=C(NC1CC1)c1ccc(S(=O)(=O)n2cncn2)cc1 [HHS-0101, 4-((1H-1,2,4-triazol-1-yl)sulfonyl)-N-cyclopropylbenzamide]",liganded tyrosine site 209,O60828,HHS0101.Y|HHS0401.Y (tyrosine sites that showed >80% reductions (SR >5) in probe labeling in cells treated with compounds (liganded sites))
same,liganded tyrosine site 430,P26599,HHS0101.Y|HHS0201.Y|HHS0401.Y (tyrosine sites that showed >80% reductions (SR >5) in probe labeling in cells treated with compounds (liganded sites))
same,liganded tyrosine site 113,P28482,HHS0101.Y (tyrosine sites that showed >80% reductions (SR >5) in probe labeling in cells treated with compounds (liganded sites))
same,liganded tyrosine site 1983,P49792,HHS0101.Y (tyrosine sites that showed >80% reductions (SR >5) in probe labeling in cells treated with compounds (liganded sites))
same,liganded tyrosine site 894,Q92974,HHS0101.Y|HHS0401.Y (tyrosine sites that showed >80% reductions (SR >5) in probe labeling in cells treated with compounds (liganded sites))
same,liganded tyrosine site 112,Q9H009,HHS0101.Y|HHS0201.Y|HHS0301.Y|HHS0401.Y|HHS0701.Y (tyrosine sites that showed >80% reductions (SR >5) in probe labeling in cells treated with compounds (liganded sites))
same,liganded tyrosine site 211,Q9UJ68,HHS0101.Y|HHS0401.Y|HHS0701.Y (tyrosine sites that showed >80% reductions (SR >5) in probe labeling in cells treated with compounds (liganded sites))

# Reference: US20240210412A1, “SULFONYL-TRIAZOLE COMPOUNDS USEFUL AS LIGANDS AND INHIBITORS OF PROSTAGLANDIN REDUCTASE 2” (University of Virginia Patent Foundation, priority 2021, published 2024)
